Source: patent US20150253328A1, “NANOMATERIAL-INDUCED CYTOTOXICITY DETECTION COMPOSITION AND KIT, AND NANOMATERIAL-INDUCED CYTOTOXICITY DETECTION METHOD” (KOREA UNIVERSITY RESEARCH AND BUSINESS FOUNDATION, priority 2011, published 2015)

What was measured:
Type in all cases: cell-based, human
Egr-1 and p-ERK proteins [1] = assay: ROS inhibitor assay (Western blot), HEKn; conditions: 10 uM/ml NAC 2 hours before ZnO, 1 hour after ZnO, FIG. 13C
Method: (§1) A Western blot assay was performed in the same manner as described in Example 2, except for the following differences. At 2 hours before treatment with ZnO, cultured cells were treated with 10 uM/ml of the antioxidant N-acetyl cystein (NAC), and after 2 hours, the cells were treated with 2 ml of fresh DMEM medium free of FBS and P/S. After 1 hour from the treatment with ZnO, the medium was removed, and the cells were treated with 1×PBS, scraped with a scrapper, and then transferred to a 1.5 ml tube. […] Thus, it can be seen that the expressions of the marker proteins Egr-1 and p-ERK are increased by ROS (B: HaCaT, C: HEKn). Herein, the data points indicate the β-actin-normalized mean and ERK-normalized mean of three independent experiments compared using two-way Anova (***P<0.001).

Egr-1 and p-ERK proteins [2] = assay: ROS inhibitor assay (Western blot), HaCaT; conditions: 10 uM/ml NAC 2 hours before ZnO, 1 hour after ZnO, FIG. 13B
Method: as §1

Egr-1 protein = assay: MAPK inhibitor assay (Western blot, ZnO plus MAPK inhibitor); conditions: cells pre-treated with inhibitor 30 minutes before ZnO; 2 hours after ZnO
Method: (§2) A Western blot assay was performed in the same manner as described in Example 2, except for the following differences. At 30 minutes before treatment with ZnO, cells were treated with an MAPK (mitogen-activated proteinkinase) inhibitor (U0126: ERK inhibitor, SB600125: p38 inhibitor, SP239063: JNK inhibitor-sigma product), and after 30 minutes, the cells were treated with 2 ml of fresh DMEM medium free of FBS and P/S. After 2 hours from treatment with ZnO, the medium was removed, and the cells were treated with 1×PBS, scraped with a scrapper, and then transferred to a 1.5 ml tube.
as §2, with “from the” for “from”

Structure (SMILES)	expression bands of Egr-1 protein (Egr-1 and p-ERK proteins [1])	expression bands of p-ERK protein (Egr-1 and p-ERK proteins [1])	expression bands of Egr-1 protein (Egr-1 and p-ERK proteins [2])	expression bands of p-ERK protein (Egr-1 and p-ERK proteins [2])	expression of the Egr-1 protein (Egr-1 protein)
CC(=O)N[C@@H](CS)C(=O)O [NAC, N-acetyl cystein]	significantly decreased	significantly decreased	significantly decreased	significantly decreased	
N#CC(=C(/N)Sc1ccccc1N)/C(C#N)=C(\N)Sc1ccccc1N [U0126]					significantly decreased
